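Where inhibition never reached the appropriate level, the endpoint shown equals the highest concentration tested. Otherwise, values were interpolated linearly from a five-concentration, 48-hour dose response in 96-well plates. GI50 is the concentration that inhibits growth by half.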 Activity calls are given as the source filed them. No stated cut-off is given here; in the data, active = GI50 up to about 1.1 µM and inactive = higher.
Columns and labels:
Assay in all cases: growth of human tumour cells (NCI), 48 h
[1] = test system: NCI-H460
[2] = test system: CAKI-1
[3] = test system: A498
[4] = test system: DU-145
[5] = test system: ACHN
[6] = test system: RXF 393
[7] = test system: OVCAR-3
[8] = test system: SK-MEL-2
[9] = test system: BT-549
[10] = test system: MDA-MB-435
[11] = test system: UO-31
[12] = test system: HOP-62
[13] = test system: Malme-3M
[14] = test system: EKVX
[15] = test system: UACC-257
[16] = test system: U-251
[17] = test system: SN12C
[18] = test system: HT-29
[19] = test system: OVCAR-5
[20] = test system: 786-0
[21] = test system: RPMI-8226
[22] = test system: SR
[23] = test system: SF-295
[24] = test system: M14
[25] = test system: LOX IMVI
[26] = test system: NCI-H522
[27] = test system: SF-268
[28] = test system: HOP-92
[29] = test system: TK-10
[30] = test system: SK-MEL-28
[31] = test system: NCI-H226
[32] = test system: K562
[33] = test system: MDA-MB-231
[34] = test system: HCT-15
[35] = test system: UACC-62
[36] = test system: SF-539
[37] = test system: OVCAR-4
[38] = test system: COLO 205
[39] = test system: SK-MEL-5
[40] = test system: Hs-578T
[41] = test system: NCI-H23
[42] = test system: HCC 2998
[43] = test system: SNB-19
[44] = test system: MDA-N
[45] = test system: NCI/ADR-RES
[46] = test system: SK-OV-3
[47] = test system: SW-620
[48] = test system: KM12
[49] = test system: T47D
[50] = test system: OVCAR-8
[51] = test system: HCT-116

SMILES: CCN(CC)C(=S)SS(=O)(=O)c1ccc(F)cc1
- GI50 [1]: 42.9 µM (inactive)
- GI50 [2]: 41 µM (inactive)
- GI50 [3]: > 100 µM (inactive)
- GI50 [4]: 37.9 µM (inactive)
- GI50 [5]: 43.1 µM (inactive)
- GI50 [6]: 18.8 µM (inactive)
- GI50 [7]: > 100 µM (inactive)
- GI50 [8]: 56.4 µM (inactive)
- GI50 [9]: 46.1 µM (inactive)
- GI50 [10]: 38.9 µM (inactive)
- GI50 [11]: 27.7 µM (inactive)
- GI50 [12]: 40.6 µM (inactive)
- GI50 [13]: 19.9 µM (inactive)
- GI50 [14]: > 100 µM (inactive)
- GI50 [15]: 28.4 µM (inactive)
- GI50 [16]: 18.8 µM (inactive)
- GI50 [17]: 34.5 µM (inactive)
- GI50 [18]: 22 µM (inactive)
- GI50 [19]: > 100 µM (inactive)
- GI50 [20]: 73.3 µM (inactive)
- GI50 [21]: 17.7 µM (inactive)
- GI50 [22]: 0.348 µM (active)
- GI50 [23]: 75.3 µM (inactive)
- GI50 [24]: 29.1 µM (inactive)
- GI50 [25]: 19.6 µM (inactive)
- GI50 [26]: 0.0552 µM (active)
- GI50 [27]: > 100 µM (inactive)
- GI50 [28]: 31.2 µM (inactive)
- GI50 [29]: > 100 µM (inactive)
- GI50 [30]: 14 µM (inactive)
- GI50 [31]: > 100 µM (inactive)
- GI50 [32]: 23.2 µM (inactive)
- GI50 [33]: 32.4 µM (inactive)
- GI50 [34]: 66.7 µM
- GI50 [35]: 19.9 µM (inactive)
- GI50 [36]: 23 µM (inactive)
- GI50 [37]: > 100 µM (inactive)
- GI50 [38]: > 100 µM (inactive)
- GI50 [39]: 7.41 µM (inactive)
- GI50 [40]: 63 µM (inactive)
- GI50 [41]: 76.4 µM (inactive)
- GI50 [42]: > 100 µM (inactive)
- GI50 [43]: > 100 µM (inactive)
- GI50 [44]: 63.2 µM (inactive)
- GI50 [45]: 50.7 µM (inactive)
- GI50 [46]: > 100 µM (inactive)
- GI50 [47]: 17.9 µM (inactive)
- GI50 [48]: 17.8 µM (inactive)
- GI50 [49]: 85.1 µM (inactive)
- GI50 [50]: 32.1 µM (inactive)
- GI50 [51]: 25.3 µM (inactive)

Reference: ChEMBL document CHEMBL1201862, “PubChem BioAssay data set” (2004)
